Data published in ChEMBL document CHEMBL1909046, “DrugMatrix in vitro pharmacology data”.

What was measured:
[1] = DRUGMATRIX: GABAA, Flunitrazepam, Central radioligand binding (ligand: [3H] Flunitrazepam); format: cell membranes, Rattus norvegicus, Wistar, Brain, Membrane; settings: Not Active = under 50% inhibition at 10 µM
[2] = DRUGMATRIX: Glutamate, Kainate radioligand binding (ligand: [3H] Kainic acid); format: cell membranes, Rattus norvegicus, Wistar, Brain, Membrane; settings: Not Active = under 50% inhibition at 10 µM
[3] = biological target: Kappa-type opioid receptor (Homo sapiens, UniProt P41145); test: DRUGMATRIX: Opiate kappa (OP2, KOP) radioligand binding (ligand: [3H] Diprenorphine); format: cell membranes, HEK293, Membrane; settings: hek293; Not Active = under 50% inhibition at 10 µM
Kappa-type opioid receptor, sequence (P41145 whole entry): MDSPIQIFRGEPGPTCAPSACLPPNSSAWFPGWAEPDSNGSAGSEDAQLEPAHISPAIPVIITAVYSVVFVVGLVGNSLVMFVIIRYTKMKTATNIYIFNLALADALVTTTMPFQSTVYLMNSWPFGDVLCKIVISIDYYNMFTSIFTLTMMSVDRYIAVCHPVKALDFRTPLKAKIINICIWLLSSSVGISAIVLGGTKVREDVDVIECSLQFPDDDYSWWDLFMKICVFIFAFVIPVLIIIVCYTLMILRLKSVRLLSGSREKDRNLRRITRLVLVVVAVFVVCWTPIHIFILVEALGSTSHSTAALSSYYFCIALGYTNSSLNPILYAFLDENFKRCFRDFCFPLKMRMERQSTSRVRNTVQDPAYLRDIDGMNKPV

[4] = DRUGMATRIX: GABAA, Chloride Channel, TBOB radioligand binding (ligand: [3H] TBOB); format: cell membranes, Rattus norvegicus, Wistar, Cerebral cortex, Membrane; settings: Not Active = under 50% inhibition at 10 µM
[5] = biological target: T1, C-C chemokine receptor type 4 (Homo sapiens, UniProt P51679); format: cell membranes, Membrane; settings: chem-1; also: in other assays of this panel Not Active means under 50% inhibition at 10 µM
T1 sequence (P51679 whole entry): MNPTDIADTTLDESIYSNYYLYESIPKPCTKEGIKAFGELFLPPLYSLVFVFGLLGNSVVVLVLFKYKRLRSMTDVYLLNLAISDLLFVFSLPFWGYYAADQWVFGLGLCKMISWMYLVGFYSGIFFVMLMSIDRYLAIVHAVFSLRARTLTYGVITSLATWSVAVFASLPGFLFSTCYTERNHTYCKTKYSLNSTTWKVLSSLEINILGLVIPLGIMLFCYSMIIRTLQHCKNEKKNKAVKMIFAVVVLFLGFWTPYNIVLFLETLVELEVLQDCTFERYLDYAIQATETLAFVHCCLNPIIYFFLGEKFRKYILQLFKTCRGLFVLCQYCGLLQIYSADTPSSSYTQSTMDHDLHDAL

[6] = DRUGMATRIX: Phosphodiesterase PDE4 enzyme inhibition (substrate: [3H]cAMP + cAMP); settings: u-937; Not Active = under 50% inhibition at 10 µM
[7] = DRUGMATRIX: Nicotinic Acetylcholine radioligand binding (ligand: [125I] Epibatidine); format: cell membranes, Membrane; settings: imr-32; Not Active = under 50% inhibition at 10 µM
[8] = biological target: T2, Vasoactive intestinal polypeptide receptor 1 (Homo sapiens, UniProt P32241); format: cell membranes, Membrane; settings: ht-29; also: in other assays of this panel Not Active means under 50% inhibition at 10 µM
T2 sequence (P32241 whole entry): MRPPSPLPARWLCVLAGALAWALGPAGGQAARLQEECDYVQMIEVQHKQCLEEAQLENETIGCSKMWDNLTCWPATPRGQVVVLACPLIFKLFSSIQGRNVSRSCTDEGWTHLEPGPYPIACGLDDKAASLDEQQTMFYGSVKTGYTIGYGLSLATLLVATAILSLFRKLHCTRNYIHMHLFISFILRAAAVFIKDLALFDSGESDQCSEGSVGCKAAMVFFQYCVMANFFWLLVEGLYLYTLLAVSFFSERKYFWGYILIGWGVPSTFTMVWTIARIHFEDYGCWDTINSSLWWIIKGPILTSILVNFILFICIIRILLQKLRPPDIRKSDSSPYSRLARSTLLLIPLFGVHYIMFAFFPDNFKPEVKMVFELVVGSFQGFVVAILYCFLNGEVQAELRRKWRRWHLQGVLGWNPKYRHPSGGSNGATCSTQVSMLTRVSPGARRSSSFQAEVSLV

CO[C@H]1C[C@@H]2CC[C@@H](C)[C@@](O)(O2)C(=O)C(=O)N2CCCC[C@H]2C(=O)O[C@H]([C@H](C)C[C@@H]2CC[C@@H](O)[C@H](OC)C2)CC(=O)[C@H](C)/C=C(\C)[C@@H](O)[C@@H](OC)C(=O)[C@H](C)C[C@H](C)/C=C/C=C/C=C/1C [SIROLIMUS]
Not Active: IC50 [1] | Ki [1] | IC50 [2] | Ki [2] | IC50 [3] | IC50 [4] | Ki [4] | IC50 [5] | IC50 [6] | Ki [6] | IC50 [7] | Ki [7] | IC50 [8]

CN[C@@H]1[C@H](O)[C@H](NC)[C@H]2O[C@@]3(O)C(=O)C[C@@H](C)O[C@H]3O[C@@H]2[C@H]1O [SPECTINOMYCIN]
Not Active: IC50 [1] | Ki [1] | IC50 [2] | Ki [2] | IC50 [3] | IC50 [4] | Ki [4] | IC50 [5] | IC50 [6] | Ki [6] | IC50 [7] | Ki [7] | IC50 [8]

Nc1ccc(S(=O)(=O)Nc2ncccn2)cc1 [SULFADIAZINE]
Not Active: IC50 [1] | Ki [1] | IC50 [2] | Ki [2] | IC50 [3] | IC50 [4] | Ki [4] | IC50 [5] | IC50 [6] | Ki [6] | IC50 [7] | Ki [7] | IC50 [8]

COc1ncnc(NS(=O)(=O)c2ccc(N)cc2)c1OC [SULFADOXINE]
Not Active: IC50 [1] | Ki [1] | IC50 [2] | Ki [2] | IC50 [3] | IC50 [4] | Ki [4] | IC50 [5] | IC50 [6] | Ki [6] | IC50 [7] | Ki [7] | IC50 [8]

Nc1ccc(S(=O)(=O)Nc2nccs2)cc1 [SULFATHIAZOLE]
Not Active: IC50 [1] | Ki [1] | IC50 [2] | Ki [2] | IC50 [3] | IC50 [4] | Ki [4] | IC50 [5] | IC50 [6] | Ki [6] | IC50 [7] | Ki [7] | IC50 [8]

C[C@]12CC[C@H]3[C@@H](CCC4=CC(=O)CC[C@@]43C)[C@@H]1CC[C@@H]2O [TESTOSTERONE]
Not Active: IC50 [1] | Ki [1] | IC50 [2] | Ki [2] | IC50 [3] | IC50 [4] | Ki [4] | IC50 [5] | IC50 [6] | Ki [6] | IC50 [7] | Ki [7] | IC50 [8]

CC(C)(C)NC[C@H](O)COc1nsnc1N1CCOCC1 [TIMOLOL]
Not Active: IC50 [1] | Ki [1] | IC50 [2] | Ki [2] | IC50 [3] | IC50 [4] | Ki [4] | IC50 [5] | IC50 [6] | Ki [6] | IC50 [7] | Ki [7] | IC50 [8]

CCS(=O)(=O)CCn1c([N+](=O)[O-])cnc1C [TINIDAZOLE]
Not Active: IC50 [1] | Ki [1] | IC50 [2] | Ki [2] | IC50 [3] | IC50 [4] | Ki [4] | IC50 [5] | IC50 [6] | Ki [6] | IC50 [7] | Ki [7] | IC50 [8]

C[C@@H]1C[C@H]2[C@@H]3CCC4=CC(=O)C=C[C@]4(C)C3=CC[C@]2(C)[C@H]1C(=O)CN1CCN(c2cc(N3CCCC3)nc(N3CCCC3)n2)CC1 [TIRILAZAD]
Not Active: IC50 [1] | Ki [1] | IC50 [2] | Ki [2] | IC50 [3] | IC50 [4] | Ki [4] | IC50 [5] | IC50 [6] | Ki [6] | IC50 [7] | Ki [7] | IC50 [8]

NC[C@H]1O[C@H](O[C@H]2[C@H](O)[C@@H](O[C@H]3O[C@H](CO)[C@@H](O)[C@H](N)[C@H]3O)[C@H](N)C[C@@H]2N)[C@H](N)C[C@@H]1O [TOBRAMYCIN]
Not Active: IC50 [1] | Ki [1] | IC50 [2] | Ki [2] | IC50 [3] | IC50 [4] | Ki [4] | IC50 [5] | IC50 [6] | Ki [6] | IC50 [7] | Ki [7] | IC50 [8]

COc1ccc(CN2CCNCC2)c(OC)c1OC [TRIMETAZIDINE]
Not Active: IC50 [1] | Ki [1] | IC50 [2] | Ki [2] | IC50 [3] | IC50 [4] | Ki [4] | IC50 [5] | IC50 [6] | Ki [6] | IC50 [7] | Ki [7] | IC50 [8]

CC(=O)O[C@H]1C[C@@H]2CC[C@@H]3[C@H](CC[C@@]4(C)[C@H]3C[C@H]([N+]3(C)CCCCC3)[C@@H]4OC(C)=O)[C@@]2(C)C[C@@H]1N1CCCCC1.[Br-] [VECURONIUM BROMIDE]
Not Active: IC50 [1] | Ki [1] | IC50 [2] | Ki [2] | IC50 [3] | IC50 [4] | Ki [4] | IC50 [5] | IC50 [6] | Ki [6] | IC50 [7] | Ki [7] | IC50 [8]

COc1cc(C(=O)NS(=O)(=O)c2ccccc2C)ccc1Cc1cn(C)c2ccc(NC(=O)OC3CCCC3)cc12 [ZAFIRLUKAST]
Not Active: IC50 [1] | Ki [1] | IC50 [2] | Ki [2] | IC50 [3] | IC50 [4] | Ki [4] | IC50 [5] | IC50 [6] | Ki [6] | IC50 [7] | Ki [7] | IC50 [8]

Cc1cn([C@H]2C[C@H](N=[N+]=[N-])[C@@H](CO)O2)c(=O)[nH]c1=O [ZIDOVUDINE]
Not Active: IC50 [1] | Ki [1] | IC50 [2] | Ki [2] | IC50 [3] | IC50 [4] | Ki [4] | IC50 [5] | IC50 [6] | Ki [6] | IC50 [7] | Ki [7] | IC50 [8]
